# ChEMBL document CHEMBL1126545, “Metabolism and biological activity of 1,25(OH)2D2 and its metabolites in a chronic myelogenous leukemia cell line, rwleu-4” (Bioorg Med Chem Lett, 1993)
# System: RWLeu4
# Assay: Change in cell surface marker (CD11b) along monocyte-macrophage pathway on RWLeu-4 cells; value represents the percentage of total cells positive for CD11b marker
# Assay type: functional, Homo sapiens
# Settings: not given
row,Compound,Cells positive
1,C=C1/C(=C\C=C2/CCC[C@]3(C)[C@@H]([C@H](C)/C=C/C(C)C(C)(C)O)CC[C@@H]23)C[C@@H](O)C[C@@H]1O (stereo partly specified),88%
2,C=C1/C(=C\C=C2/CCC[C@@]3(C)C2CC[C@@H]3[C@H](C)/C=C/C(C)C(C)(O)CO)C[C@@H](O)C[C@@H]1O (stereo partly specified),89%

# System: RWLeu4
# Assay: Change in cell surface marker (CD4) along monocyte-macrophage pathway on RWLeu-4 cells; value represents the percentage of total cells positive for CD4 marker
# Assay type: functional, Homo sapiens
# Settings: not given
row,Compound,Cells positive
1,C=C1/C(=C\C=C2/CCC[C@]3(C)[C@@H]([C@H](C)/C=C/C(C)C(C)(C)O)CC[C@@H]23)C[C@@H](O)C[C@@H]1O (stereo partly specified),15%
2,C=C1/C(=C\C=C2/CCC[C@@]3(C)C2CC[C@@H]3[C@H](C)/C=C/C(C)C(C)(O)CO)C[C@@H](O)C[C@@H]1O (stereo partly specified),21%

# System: RWLeu4
# Assay: Concentration required to decrease [3H]thymidine incorporation by 50 percent in RWLeu4 CML cell line as compared to untreated cells was determined
# Assay type: functional, cell-based
# Settings: Homo sapiens
row,IC50,Compound
1,0.096 µM,C=C1/C(=C\C=C2/CCC[C@]3(C)[C@@H]([C@H](C)/C=C/C(CO)C(C)(C)O)CC[C@@H]23)C[C@@H](O)C[C@@H]1O (stereo partly specified)
2,0.011 µM,C=C1/C(=C\C=C2/CCC[C@@]3(C)C2CC[C@@H]3[C@H](C)/C=C/C(C)(O)C(C)(O)CO)C[C@@H](O)C[C@@H]1O (stereo partly specified)
3,0.013 µM,C=C1/C(=C\C=C2/CCC[C@]3(C)[C@@H]([C@H](C)/C=C/C(C)C(C)(C)O)CC[C@@H]23)C[C@@H](O)C[C@@H]1O (stereo partly specified)
4,0.011 µM,C=C1/C(=C\C=C2/CCC[C@]3(C)[C@@H]([C@H](C)CC[C@@H](O)C(C)(C)O)CC[C@@H]23)C[C@@H](O)C[C@@H]1O
5,> 0.1 µM,C=C1/C(=C\C=C2/CCC[C@]3(C)[C@@H]([C@H](C)/C=C/C(O)(CO)C(C)(C)O)CC[C@@H]23)C[C@@H](O)C[C@@H]1O (stereo partly specified)
6,0.008 µM,C=C1/C(=C\C=C2/CCC[C@@]3(C)C2CC[C@@H]3[C@H](C)/C=C/C(C)C(C)(O)CO)C[C@@H](O)C[C@@H]1O (stereo partly specified)
7,0.011 µM,C=C1/C(=C\C=C2/CCC[C@@]3(C)C2CC[C@@H]3[C@H](C)/C=C/C(C)(O)C(C)(C)O)C[C@@H](O)C[C@@H]1O (stereo partly specified)
